Experimental data from US20080200337A1, “Mixed herbicide compositions for paddy field” (Bayer CropScience, priority 2007, published 2008).
“And” between values parts separate entries of the source, which are not always exact repeats. Equal values may be shown once.

Tests used:
Format in all cases: in vivo
Cyperus difformis L. = assay: Weed control by spray treatment at 1.5 to 3.0 leaf-stage (Test Example 3); details: spray at 1.5 to 3.0 leaf-stage, 4 weeks later
Experimental: (§1) Carrier: 5 parts by weight of acetone
(§2) Surfactant: one part by weight of benzyloxy polyglycol ether.
(§3) Above described carrier and surfactant are mixed with one part by weight of the active compound ((a) ingredient and (b) ingredient) and the resulting preparation is then diluted with water to obtain given amount of the test drug (the formulation).
(§4) In a greenhouse, seeds of rice (var.: Nipponbare and RD23) and weeds (Echinochloa oryzicola Vasing, Echinochloa cruss-galli, Leptochloa chinensis, Cyperus difformis L., Cyperus iria L., annual broad-leaved weeds (Monochoria vaginalis Presl, Lindernia procumbens Philcox, Lindernia dubia L. Penn., Rotala indica Koehne, Elatine triandra Schk, Ammannia multiflora Roxb. and the like)) were sown in a 500 cm^2 pot filled with paddy field soil and covered with soil. Water was added to the pot (a depth of 0 cm) to be a wet condition, and each test plant was grown in the greenhouse to 1.5 to 3.0 leaf-stage, after then a prescribed, diluted solution of the formulation of each active compound and each herbicidal compound in the table were separately or simultaneously sprayed over the pots with plants. At 3 days after the treatment, the water depth of 3 cm was maintained, and 4 weeks later, herbicidal effect was then examined. In the assessment of the herbicidal effect and the phytotoxicity, 100% refers to complete death and 0% refers to no effect or no phytotoxicity.

Cyperus iria L. = assay: as above; details: spray at 1.5 to 3.0 leaf-stage, 4 weeks later
Experimental: as §1, §2, §3, §4

Echinochloa cruss-galli = assay: as above; details: spray at 1.5 to 3.0 leaf-stage, 4 weeks later
Experimental: as §1, §2, §3, §4

[1] = test system: Echinochloa oryzicola Vasing; assay: as above; details: spray at 1.5 to 3.0 leaf-stage, 4 weeks later
Experimental: as §1, §2, §3, §4

Leptochloa chinensis = assay: as above; details: spray at 1.5 to 3.0 leaf-stage, 4 weeks later
Experimental: as §1, §2, §3, §4

[2] = test system: Monochoria vaginalis Presl; assay: as above; details: spray at 1.5 to 3.0 leaf-stage, 4 weeks later
Experimental: as §1, §2, §3, §4

[3] = test system: annual broad-leaved weeds; assay: as above; details: spray at 1.5 to 3.0 leaf-stage, 4 weeks later
Experimental: as §1, §2, §3, §4

[4] = test system: submerged direct sown paddy (Nipponbare); assay: Phytotoxicity, spray treatment at 1.5 to 3.0 leaf-stage (Test Example 3); details: spray at 1.5 to 3.0 leaf-stage, 4 weeks later
Experimental: as §1, §2, §3, §4

[5] = test system: submerged direct sown paddy (RD-23); assay: as above; details: spray at 1.5 to 3.0 leaf-stage, 4 weeks later, RD-23
Experimental: as §1, §2, §3, §4

[6] = test system: Cyperus serotinus Rottboel; assay: Weed control, flooded paddy field, treatment at 1 leaf-stage (Test Example 1); details: after 4 weeks
Experimental: as §1, §2, §3
(§5) In a greenhouse, seeds or tubers of Echinochloa, Scirpus juncoides Roxburgh, Monochoria vaginalis Presl, annual broad-leaved weeds (Lindernia procumbens Philcox, Lindernia dubia L. Penn., Rotala indica Koehne, Elatine triandra Schk, Ammannia multiflora Roxb.), Cyperus serotinus Rottboel and Sagittaria pygmaea Miq. were inoculated in a 500 cm^2 pot filled with paddy field soil. After 2 leaf-stage of rice were transplanted, water was poured to a depth of about 3 cm. At 1.0 leaf-stage of Echinochloa oryzicola Vasing, a prescribed, diluted solution of the formulation of each active compound and each herbicidal compound in the table was separately or simultaneously applied to the surface of water. After the treatment, the water depth of 3 cm was maintained, and herbicidal effect was examined after 4 weeks. In the assessment of the herbicidal effect and the phytotoxicity, 100% refers to complete death and 0% refers to no effect or no phytotoxicity.

Echinochloa [7] = assay: as above; details: after 4 weeks
Experimental: as §1, §2, §3, §5

[8] = test system: Monochoria vaginalis Presl; assay: as above; details: after 4 weeks
Experimental: as §1, §2, §3, §5

Sagittaria pygmaea Miq. [9] = assay: as above; details: after 4 weeks
Experimental: as §1, §2, §3, §5

[10] = test system: Scirpus juncoides Roxburgh; assay: as above; details: after 4 weeks
Experimental: as §1, §2, §3, §5

[11] = test system: annual broad-leaved weeds; assay: as above; details: after 4 weeks
Experimental: as §1, §2, §3, §5

transplanted rice [12] = assay: Phytotoxicity, flooded paddy field, treatment at 1 leaf-stage (Test Example 1); details: treatment at 1 leaf-stage, after 4 weeks
Experimental: as §1, §2, §3, §5

[13] = test system: Cyperus serotinus Rottboel; assay: Weed control, flooded paddy field, treatment at 3 leaf-stage (Test Example 2); details: after 4 weeks
Experimental: as §1, §2, §3
as §5, with “Echinochloa, Cyperus difformis L.,” for “Echinochloa,”, “3.0” for “1.0”, “Echinochloa,” for “Echinochloa oryzicola Vasing,”

Echinochloa [14] = assay: as above; details: after 4 weeks
Experimental: as §1, §2, §3
as §5, with “Echinochloa, Cyperus difformis L.,” for “Echinochloa,”, “3.0” for “1.0”, “Echinochloa,” for “Echinochloa oryzicola Vasing,”

[15] = test system: Monochoria vaginalis Presl; assay: as above; details: after 4 weeks
Experimental: as §1, §2, §3
as §5, with “Echinochloa, Cyperus difformis L.,” for “Echinochloa,”, “3.0” for “1.0”, “Echinochloa,” for “Echinochloa oryzicola Vasing,”

Sagittaria pygmaea Miq. [16] = assay: as above; details: after 4 weeks
Experimental: as §1, §2, §3
as §5, with “Echinochloa, Cyperus difformis L.,” for “Echinochloa,”, “3.0” for “1.0”, “Echinochloa,” for “Echinochloa oryzicola Vasing,”

[17] = test system: Scirpus juncoides Roxburgh; assay: as above; details: after 4 weeks
Experimental: as §1, §2, §3
as §5, with “Echinochloa, Cyperus difformis L.,” for “Echinochloa,”, “3.0” for “1.0”, “Echinochloa,” for “Echinochloa oryzicola Vasing,”

[18] = test system: annual broad-leaved weeds; assay: as above; details: after 4 weeks
Experimental: as §1, §2, §3
as §5, with “Echinochloa, Cyperus difformis L.,” for “Echinochloa,”, “3.0” for “1.0”, “Echinochloa,” for “Echinochloa oryzicola Vasing,”

transplanted rice [19] = assay: Phytotoxicity, flooded paddy field, treatment at 3 leaf-stage (Test Example 2); details: rice, in vivo, 4 weeks
Experimental: as §1, §2, §3
as §5, with “Echinochloa, Cyperus difformis L.,” for “Echinochloa,”, “3.0” for “1.0”, “Echinochloa,” for “Echinochloa oryzicola Vasing,”

Row | SMILES | Herbicidal effect (%) CYPDI (Cyperus difformis L.; 30 g ai/ha) [%] | Herbicidal effect (%) CYPDI (Cyperus difformis L.; 50 g ai/ha) [%] | Herbicidal effect (%) CYPIR (Cyperus iria L.; 30 g ai/ha) [%] | Herbicidal effect (%) CYPIR (Cyperus iria L.; 50 g ai/ha) [%] | Herbicidal effect (%) ECHCG (Echinochloa cruss-galli; 30 g ai/ha) [%] | Herbicidal effect (%) ECHCG (Echinochloa cruss-galli; 50 g ai/ha) [%] | Herbicidal effect (%) ECHOR ([1]; 30 g ai/ha) [%] | Herbicidal effect (%) ECHOR ([1]; 50 g ai/ha) [%] | Herbicidal effect (%) LEFCH (Leptochloa chinensis; 30 g ai/ha) [%] | Herbicidal effect (%) LEFCH (Leptochloa chinensis; 50 g ai/ha) [%] | Herbicidal effect (%) MOOVP ([2]; 30 g ai/ha) [%] | Herbicidal effect (%) MOOVP ([2]; 50 g ai/ha) [%] | Herbicidal effect (%) BBBBB ([3]; 30 g ai/ha) [%] | Herbicidal effect (%) BBBBB ([3]; 50 g ai/ha) [%] | Phytotoxicity (%) ORYSW*^1 ([4]; 30 g ai/ha) [%] | Phytotoxicity (%) ORYSW*^1 ([4]; 50 g ai/ha) [%] | Phytotoxicity (%) ORYSW*^2 ([5]; 30 g ai/ha) [%] | Phytotoxicity (%) ORYSW*^2 ([5]; 50 g ai/ha) [%] | Phytotoxicity (%) ORYSP (transplanted rice [19]) [%] | further results
1 | COc1nc(OC)nc(C(=O)c2cccc(Cl)c2N(C)S(=O)(=O)C(F)F)n1 [(a-2)] | 100 | 100 | 100 | 100 | 100 | 100 | 100 | 100 | 65 | 65 | 40 | 65 | 70 | 85 | 5 | 10 | 5 | 10 |  | 
2 | COc1nc(OC)nc(C(O)c2cccc(Cl)c2N(C)S(=O)(=O)C(F)F)n1 (stereo not shown) [(a-4)] | 100 | 100 | 100 | 100 | 100 | 100 | 100 | 100 | 50 | 50 | 25 | 25 | 65 | 75 | 0 | 5 | 0 | 0 |  | 
3 | Cc1c(Cl)ccc(OC(C)C(=O)Nc2ccccc2)c1Cl (stereo not shown) [(b-1), clomeprop] |  |  |  |  |  |  |  |  |  |  |  |  |  |  |  |  |  |  | 0 | Herbicidal effect (%) CYPSEE ([6]; 350 g ai/ha): 50%; Herbicidal effect (%) ECHSS (Echinochloa [7]; 350 g ai/ha): 20%; Herbicidal effect (%) MOOVP ([8]; 350 g ai/ha): 100%; Herbicidal effect (%) SAGPY (Sagittaria pygmaea Miq. [9]; 350 g ai/ha): 90%; Herbicidal effect (%) SCPSS ([10]; 350 g ai/ha): 90%; Herbicidal effect (%) BBBBB ([11]; 350 g ai/ha): 100%; Phytotoxicity (%) ORYSP (transplanted rice [12]; 350 g ai/ha): 10% and 0%; Herbicidal effect (%) CYPSEE ([13]; 350 g ai/ha): 20%; Herbicidal effect (%) ECHSS (Echinochloa [14]; 350 g ai/ha): 20%; Herbicidal effect (%) MOOVP ([15]; 350 g ai/ha): 100%; Herbicidal effect (%) SAGPY (Sagittaria pygmaea Miq. [16]; 350 g ai/ha): 90%; Herbicidal effect (%) SCPSS ([17]; 350 g ai/ha): 90%; Herbicidal effect (%) BBBBB ([18]; 350 g ai/ha): 90%
4 | CC(C)(NC(=O)C(Br)C(C)(C)C)c1ccccc1 (stereo not shown) [(b-2), bromobutide] |  |  |  |  |  |  |  |  |  |  |  |  |  |  |  |  |  |  | 0 | Herbicidal effect (%) CYPSEE ([6]; 750 g ai/ha): 70%; Herbicidal effect (%) ECHSS (Echinochloa [7]; 750 g ai/ha): 100%; Herbicidal effect (%) MOOVP ([8]; 750 g ai/ha): 80%; Herbicidal effect (%) SAGPY (Sagittaria pygmaea Miq. [9]; 750 g ai/ha): 70%; Herbicidal effect (%) SCPSS ([10]; 750 g ai/ha): 90%; Herbicidal effect (%) BBBBB ([11]; 750 g ai/ha): 50%; Phytotoxicity (%) ORYSP (transplanted rice [12]; 750 g ai/ha): 0%; Herbicidal effect (%) CYPSEE ([13]; 750 g ai/ha): 90%; Herbicidal effect (%) ECHSS (Echinochloa [14]; 750 g ai/ha): 45%; Herbicidal effect (%) MOOVP ([15]; 750 g ai/ha): 70%; Herbicidal effect (%) SAGPY (Sagittaria pygmaea Miq. [16]; 750 g ai/ha): 40%; Herbicidal effect (%) SCPSS ([17]; 750 g ai/ha): 80%; Herbicidal effect (%) BBBBB ([18]; 750 g ai/ha): 30%
